From PubChem BioAssay AID2060899 (Molecular Pharmacology Branch, DTP, NCI, 2025)

Tested on: 565726-208-R1-J5-PDC complex spheroids, growth inhibition
Assay: Anticancer human tumor 565726-208-R1-J5-PDC patient-derived pancreatic adenocarcinoma cell line growth inhibition [RAS]
Conditions: for IC50: curve of first compound; for viability, T/C: stronger effect = lower value
How it was run: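 Tumour cells grown as complex spheroids with HUVEC endothelial cells and mesenchymal stem cells, treated with RAS pathway inhibitor combinations. Each agent spans half-log steps from near clinical Cmax, or 10 microM where Cmax is unknown.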
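Also: spheroids exposed to compounds for seven days before readout.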
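For viability, T/C in this document: 100% = DMSO vehicle control viability.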

SMILES: C=CC(=O)N1CCN(c2nc(OCC3CCCN3C)nc3c(F)c(-c4nc(N)cc(C)c4C(F)(F)F)c(Cl)cc23)C(C)C1 (configuration not stated) + CCn1c(-c2cccnc2C(C)OC)c2c3cc(ccc31)N1CCOC(CC(NC(=O)C(C(C)C)N(C)C(=O)C3(F)CCN(C(=O)C#CC(C)(C)N(C)C)CC3)C(=O)N3CCCC(N3)C(=O)OCC(C)(C)C2)C1
- IC50 (second compound 0.000949 µM): > 1000 nM
- IC50 (second compound 0.003 µM): > 1000 nM
- IC50 (second compound 0.00949 µM): > 1000 nM
- IC50 (second compound 0.03 µM): > 1000 nM
- IC50 (second compound 0.0949 µM): > 1000 nM
- IC50 (second compound 0.3 µM): > 1000 nM
- viability, T/C (second compound 0.000949 µM, first compound 0.00316 µM): 99.3%
- viability, T/C (second compound 0.000949 µM, first compound 0.01 µM): 98.6%
- viability, T/C (second compound 0.000949 µM, first compound 0.0316 µM): 108%
- viability, T/C (second compound 0.000949 µM, first compound 0.1 µM): 111%
- viability, T/C (second compound 0.000949 µM, first compound 0.316 µM): 97%
- viability, T/C (second compound 0.000949 µM, first compound 1 µM): 102%
- viability, T/C (second compound 0.003 µM, first compound 0.00316 µM): 103%
- viability, T/C (second compound 0.003 µM, first compound 0.01 µM): 109%
- viability, T/C (second compound 0.003 µM, first compound 0.0316 µM): 105%
- viability, T/C (second compound 0.003 µM, first compound 0.1 µM): 93.6%
- viability, T/C (second compound 0.003 µM, first compound 0.316 µM): 96.9%
- viability, T/C (second compound 0.003 µM, first compound 1 µM): 103%
- viability, T/C (second compound 0.00949 µM, first compound 0.00316 µM): 106%
- viability, T/C (second compound 0.00949 µM, first compound 0.01 µM): 112%
- viability, T/C (second compound 0.00949 µM, first compound 0.0316 µM): 104%
- viability, T/C (second compound 0.00949 µM, first compound 0.1 µM): 107%
- viability, T/C (second compound 0.00949 µM, first compound 0.316 µM): 96.8%
- viability, T/C (second compound 0.00949 µM, first compound 1 µM): 100%
- viability, T/C (second compound 0.03 µM, first compound 0.00316 µM): 99.3%
- viability, T/C (second compound 0.03 µM, first compound 0.01 µM): 97.7%
- viability, T/C (second compound 0.03 µM, first compound 0.0316 µM): 111%
- viability, T/C (second compound 0.03 µM, first compound 0.1 µM): 98.7%
- viability, T/C (second compound 0.03 µM, first compound 0.316 µM): 98.6%
- viability, T/C (second compound 0.03 µM, first compound 1 µM): 104%
- viability, T/C (second compound 0.0949 µM, first compound 0.00316 µM): 97.1%
- viability, T/C (second compound 0.0949 µM, first compound 0.01 µM): 109%
- viability, T/C (second compound 0.0949 µM, first compound 0.0316 µM): 109%
- viability, T/C (second compound 0.0949 µM, first compound 0.1 µM): 94.8%
- viability, T/C (second compound 0.0949 µM, first compound 0.316 µM): 100%
- viability, T/C (second compound 0.0949 µM, first compound 1 µM): 94.5%
- viability, T/C (second compound 0.3 µM, first compound 0.00316 µM): 93.7%
- viability, T/C (second compound 0.3 µM, first compound 0.01 µM): 79%
- viability, T/C (second compound 0.3 µM, first compound 0.0316 µM): 96.7%
- viability, T/C (second compound 0.3 µM, first compound 0.1 µM): 95.4%
- viability, T/C (second compound 0.3 µM, first compound 0.316 µM): 90.3%
- viability, T/C (second compound 0.3 µM, first compound 1 µM): 85.3%
